Patent US20100190824A1, “Novel Substituted Piperidones as HSP Inducers” (priority 2007, published 2010)

Experiments:
TNF-α mRNA = assay: Inhibition of LPS-induced TNF-α expression in PMA differentiated THP-1 cells; assay type: cell-based, Human; settings: LPS (1 ug/ml) and compound for 4 hours, LPS alone as 100%
Description: The purpose of the present study was to determine the inhibition of lipopolysaccharide(LPS)-induced TNF-α expression in phorbol merstyl ester (PMA) differentiated THP-1 cells.
Human monocytic leukaemia cell line (THP-1), differentiated into macrophage-like cells by PMA treatment was employed. Differentiated cells were treated with either LPS (1 ug/ml) alone or with LPS (1 ug/ml) and compound for 4 hours. Total RNA was isolated and expression of TNF-αmRNA along-with expression of 18S rRNA was monitored by real-time PCR. TNF-α mRNA expression was normalized relative to the expression of 18S rRNA Considering TNF-α expression for cells treated with LPS alone as 100%; the results for test compounds were expressed as % inhibition of TNF-α expression and are as shown in Table 4

HSP70b mRNA = assay: Cellular expression of HSP-70 mRNA in primary mixed neurons (real-time PCR); assay type: cell-based; settings: fold induction of HSP70b mRNA relative to vehicle treated control; primary mixed neurons from neonatal rat cerebellum; 4 hours; normalized to 18S rRNA
Description: Experiments set forth in this section were conducted to determine whether the compounds of the present invention are able to elevate the expression of HSP-70 gene in cells.
Hela cell-line or primary mixed neurons derived from neonatal rat cerebellum were employed. Induction was carried out for the indicated dose(s) for 4 hours duration and total RNA was isolated. Expression of HSP70b mRNA along-with expression of 18S rRNA was monitored by real-time PCR. HSP70b mRNA expression was normalized relative to the expression of 18S rRNA.
The results for test compounds were expressed as fold induction of HSP-70 mRNA relative to vehicle treated control and are as shown in Table 2 & 3.

| Structure (SMILES) | TNF-alpha Inhibition (TNF-α mRNA) | HSP Induction in mixed neuron (HSP70b mRNA) |
| --- | --- | --- |
| CC1(C)CN(Cc2ccccc2)CC(=Cc2ccccn2)C1=O [Compound 1, 1-Benzyl-3,3-dimethyl-5-[1-pyridin-2-yl-methylidene]-piperidin-4-one] | (++++) (>80%) | – |
| CC1(C)CN(C(=O)OCc2ccccc2)CC(=Cc2ccccn2)C1=O [Compound 2, 3,3-Dimethyl-4-oxo-5-[1-pyridin-2-yl-methylidene]-piperidine-1-carboxylic acid benzyl ester] | (+++) (61-80%) | – |
| CC1(C)CN(Cc2ccccc2)CC(=Cc2ccc(C(=O)N3CCOCC3)cc2)C1=O [Compound 7, 1-Benzyl-3,3-dimethyl-5-[1-[4-(morpholine-4-carbonyl)-phenyl]-methylidene]-piperidin-4-one] | (+++) (61-80%) | – |
| CSc1ccc(C=C2CN(Cc3ccccc3)CC(C)(C)C2=O)cc1 [Compound 8, 1-Benzyl-3,3-dimethyl-5-[1-(4-methylsulfanyl-phenyl)-methylidene]-piperidin-4-one] | (++++) (>80%) | – |
| CSc1ccc(C2/C(=C\c3cccc(N4CCOCC4)n3)C(=O)C(C)(C)CN2Cc2ccccc2)cc1 (stereo not drawn) [Compound 42, 1-Benzyl-5,5-dimethyl-2-(4-methylsulfanyl-phenyl)-3-[1-(6-morpholin-4-yl-pyridin-2-yl)-meth-(E)-ylidene]-piperidin-4-one] | (++) (41-60%) | (+++) (9-16 fold) |
| CC1(C)CN(Cc2ccccc2)C(c2ccc(C(F)(F)F)cc2)C(=Cc2cccc(N3CCOCC3)n2)C1=O (stereo not drawn) [Compound 43, 1-Benzyl-5,5-dimethyl-3-[1-(6-morpholin-4-yl-pyridin-2-yl)-methylidene]-2-(4-trifluoromethyl-phenyl)-piperidin-4-one] | (++) (41-60%) | (+++) (9-16 fold) |
| CC1(C)CN(Cc2ccccc2)C(c2ccc(Cl)c(Cl)c2)C(=Cc2ccccn2)C1=O (stereo not drawn) [Compound 45, 1-Benzyl-2-(3,4-dichloro-phenyl)-5,5-dimethyl-3-[1-pyridin-2-yl-methylidene]-piperidin-4-one] | – | (++) (5-8 fold) |
| CSc1ccc(C2C(=Cc3ccccn3)C(=O)C(C)(C)CN2Cc2ccccc2)cc1 (stereo not drawn) [Compound 46, 1-Benzyl-5,5-dimethyl-2-(4-methylsulfanyl-phenyl)-3-[1-pyridin-2-yl-methylidene]-piperidin-4-one] | (++) (41-60%) | (+++) (9-16 fold) |
| COc1ccc(CN2CC(C)(C)C(=O)C(=Cc3ccccn3)C2c2ccccc2)cc1 (stereo not drawn) [Compound 47, 1-(4-Methoxy-benzyl)-5,5-dimethyl-2-phenyl-3-[1-pyridin-2-yl-methylidene]-piperidin-4-one] | (+++) (61-80%) | (++++) (>16 fold) |
| COC(=O)N1CC(=Cc2ccccn2)C(=O)C(C)(C)C1Cc1ccc(OC)cc1 (stereo not drawn) [Compound 52, 2-(4-Methoxy-benzyl)-3,3-dimethyl-4-oxo-5-[1-pyridin-2-yl-methylidene]-piperidine-1-carboxylic acid methyl ester] | (++++) (>80%) | (++) (5-8 fold) |
| CC1(C)CN(Cc2cccs2)C(c2ccccc2F)C(=Cc2cccc(N3CCOCC3)n2)C1=O (stereo not drawn) [Compound 57, 2-(2-Fluoro-phenyl)-5,5-dimethyl-3-[1-(6-morpholin-4-yl-pyridin-2-yl)-methylidene]-1-thiophen-2-ylmethyl-piperidin-4-one] | – | (+) (2-4 fold) |
| CC1(C)CN(Cc2cccs2)C(c2ccccc2F)C(=Cc2ccccn2)C1=O (stereo not drawn) [Compound 58, (2-Fluoro-phenyl)-5,5-dimethyl-3-[1-pyridin-2-yl-methylidene]-1-thiophen-2-ylmethyl-piperidin-4-one] | – | (+) (2-4 fold) |
| COc1ccc(CC2N(C(=S)Nc3ccccc3)CC(=Cc3ccccn3)C(=O)C2(C)C)cc1 (stereo not drawn) [Compound 60, 2-(4-Methoxy-benzyl)-3,3-dimethyl-4-oxo-5-[1-pyridin-2-yl-methylidene]-piperidine-1-carbothioic acid phenylamide] | (+++) (61-80%) | (++++) (>16 fold) |
| CSc1ccc(C2C(=Cc3ccccn3)C(=O)C(C)(C)CN2Cc2cccs2)cc1 (stereo not drawn) [Compound 61, 5,5-Dimethyl-2-(4-methylsulfanyl-phenyl)-3-[1-pyridin-2-yl-methylidene]-1-thiophen-2-ylmethyl-piperidin-4-one] | (+++) (61-80%) | (++++) (>16 fold) |
| COc1ccc(CN2CC(C)(C)C(=O)C(=Cc3cccc(N4CCOCC4)n3)C2c2ccccc2)cc1 (stereo not drawn) [Compound 62, 1-(4-Methoxy-benzyl)-5,5-dimethyl-3-[1-(6-morpholin-4-yl-pyridin-2-yl)-methylidene]-2-phenyl-piperidin-4-one] | – | (+) (2-4 fold) |
| COc1ccc(CN2CC(C)(C)C(=O)C(=Cc3cccc(N4CCOCC4)n3)C2c2ccc(C(F)(F)F)cc2)cc1 (stereo not drawn) [Compound 63, 1-(4-Methoxy-benzyl)-5,5-dimethyl-3-[1-(6-morpholin-4-yl-pyridin-2-yl)-methylidene]-2-(4-trifluoromethyl-phenyl)-piperidin-4-one] | (++) (41-60%) | (++) (5-8 fold) |
| Cc1cc(N2CC(=Cc3ccccn3)C(=O)C(C)(C)C2)no1 [Compound 64, 3,3-Dimethyl-1-(5-methyl-isoxazol-3-yl)-5-[1-pyridin-2-yl-methylidene]-piperidin-4-one] | – | (++++) (>16 fold) |
| Cc1cc(N2CC(C)(C)C(=O)C(=Cc3cccc(N4CCOCC4)n3)C2c2ccccc2)no1 (stereo not drawn) [Compound 65, 5,5-Dimethyl-1-(5-methyl-isoxazol-3-yl)-3-[1-(6-morpholin-4-yl-pyridin-2-yl)-methylidene]-2-phenyl-piperidin-4-one] | (+++) (61-80%) | (+++) (9-16 fold) |
| COc1ccc(CC2N(C(=O)NCc3ccccc3)CC(=Cc3ccccn3)C(=O)C2(C)C)cc1 (stereo not drawn) [Compound 66, 2-(4-Methoxy-benzyl)-3,3-dimethyl-4-oxo-5-[1-pyridin-2-yl-methylidene]-piperidine-1-carboxylic acid benzylamide] | – | (++) (5-8 fold) |
| CC1(C)CN(Cc2ccc(F)cc2)CC(=Cc2cccc(N3CCOCC3)n2)C1=O [Compound 73, 1-(4-Fluoro-benzyl)-3,3-dimethyl-5-[1-(6-morpholin-4-yl-pyridin-2-yl)-methylidene]-piperidin-4-one] | – | (+) (2-4 fold) |
| CC1(C)CN(Cc2ccc(F)cc2)C(c2ccccc2)C(=Cc2ccccn2)C1=O (stereo not drawn) [Compound 76, 1-(4-Fluoro-benzyl)-5,5-dimethyl-2-phenyl-3-[1-pyridin-2-yl-methylidene]-piperidin-4-one] | – | (+) (2-4 fold) |
| CC1(C)CN(Cc2ccc(F)cc2)C(c2ccccc2)C(=Cc2cccc(N3CCOCC3)n2)C1=O (stereo not drawn) [Compound 81, 1-(4-Fluoro-benzyl)-5,5-dimethyl-3-[1-(6-morpholin-4-yl-pyridin-2-yl)-methylidene]-2-phenyl-piperidin-4-one] | – | (+) (2-4 fold) |
| COc1ccc(CN2CC(C)(C)C(=O)C(=Cc3cccc(N4CCOCC4)n3)C2c2ccccc2F)cc1 (stereo not drawn) [Compound 86, 2-(2-Fluoro-phenyl)-1-(4-methoxy-benzyl)-5,5-dimethyl-3-[1-(6-morpholin-4-yl-pyridin-2-yl)-methylidene]-piperidin-4-one] | – | (+) (2-4 fold) |
| COc1ccc(C2C(=Cc3cccc(N4CCOCC4)n3)C(=O)C(C)(C)CN2Cc2ccccc2)c(F)c1 (stereo not drawn) [Compound 92, 1-Benzyl-2-(2-fluoro-4-methoxy-phenyl)-5,5-dimethyl-3-[1-(6-morpholin-4-yl-pyridin-2-yl)-methylidene]-piperidin-4-one] | – | (++) (5-8 fold) |
| CC1(C)CN(CCc2ccccc2)C(c2ccccc2)C(=Cc2ccccn2)C1=O (stereo not drawn) [Compound 94, 5,5-Dimethyl-1-phenethyl-2-phenyl-3-[1-pyridin-2-yl-methylidene]-piperidin-4-one] | – | (+) (2-4 fold) |
| CC1(C)CN(CCc2ccccc2)C(c2ccccc2)C(=Cc2cccc(N3CCOCC3)n2)C1=O (stereo not drawn) [Compound 95, 5,5-Dimethyl-3-[1-(6-morpholin-4-yl-pyridin-2-yl)-methylidene]-1-phenethyl-2-phenyl-piperidin-4-one] | – | (++) (5-8 fold) |
| Cc1ccc(CN2CC(C)(C)C(=O)C(=Cc3cccc(N4CCOCC4)n3)C2c2ccccc2)cc1 (stereo not drawn) [Compound 232, 5,5-Dimethyl-1-(4-methyl-benzyl)-3-[1-(6-morpholin-4-yl-pyridin-2-yl)-methylidene]-2-phenyl-piperidin-4-one] | – | (++) (5-8 fold) |
